pIC50: −log10 of the molar value. Residues, ends and D or L forms follow the SMILES beside them.
Molecular target: T1, angiotensin converting enzyme (ACE, EC 3.4.15.1) (Oryctolagus cuniculus, UniProt P12822)
T1 sequence (P12822 34-1310): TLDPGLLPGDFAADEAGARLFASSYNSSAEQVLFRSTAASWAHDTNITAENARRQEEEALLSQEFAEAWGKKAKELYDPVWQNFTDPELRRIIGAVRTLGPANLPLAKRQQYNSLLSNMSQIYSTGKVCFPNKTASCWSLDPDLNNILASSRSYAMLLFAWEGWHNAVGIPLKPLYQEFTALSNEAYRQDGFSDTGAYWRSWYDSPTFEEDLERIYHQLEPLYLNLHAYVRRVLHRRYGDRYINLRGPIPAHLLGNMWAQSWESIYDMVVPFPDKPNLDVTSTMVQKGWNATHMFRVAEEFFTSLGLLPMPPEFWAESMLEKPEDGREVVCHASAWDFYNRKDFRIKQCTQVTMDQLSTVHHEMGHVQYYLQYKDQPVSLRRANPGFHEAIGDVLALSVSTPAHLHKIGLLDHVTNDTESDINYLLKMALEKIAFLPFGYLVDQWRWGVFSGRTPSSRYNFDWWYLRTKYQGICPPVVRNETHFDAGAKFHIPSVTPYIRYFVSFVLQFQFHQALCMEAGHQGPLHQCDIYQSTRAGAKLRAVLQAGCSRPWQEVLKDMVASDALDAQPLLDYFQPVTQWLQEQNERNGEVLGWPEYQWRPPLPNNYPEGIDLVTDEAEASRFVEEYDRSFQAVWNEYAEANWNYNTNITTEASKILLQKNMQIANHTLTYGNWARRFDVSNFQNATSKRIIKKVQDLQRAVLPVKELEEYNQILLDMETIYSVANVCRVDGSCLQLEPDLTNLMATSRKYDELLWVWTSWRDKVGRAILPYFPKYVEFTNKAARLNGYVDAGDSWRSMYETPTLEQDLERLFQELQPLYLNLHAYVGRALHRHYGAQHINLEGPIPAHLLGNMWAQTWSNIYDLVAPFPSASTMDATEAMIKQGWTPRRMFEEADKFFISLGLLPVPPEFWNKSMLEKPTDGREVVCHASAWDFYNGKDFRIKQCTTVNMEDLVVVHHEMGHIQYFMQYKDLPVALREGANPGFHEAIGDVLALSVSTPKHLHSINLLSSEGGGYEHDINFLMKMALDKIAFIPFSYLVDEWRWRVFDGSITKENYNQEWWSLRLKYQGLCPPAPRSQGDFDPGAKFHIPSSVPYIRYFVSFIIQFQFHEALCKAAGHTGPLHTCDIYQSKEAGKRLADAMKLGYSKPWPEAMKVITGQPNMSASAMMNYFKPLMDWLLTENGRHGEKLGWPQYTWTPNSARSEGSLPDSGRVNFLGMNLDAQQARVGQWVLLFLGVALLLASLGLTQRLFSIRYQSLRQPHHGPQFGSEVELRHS
Type: biochemical
Protocol: The inhibitory activity of the angiotensin converting enzyme (ACE) is measured in vitro according to the method of D. W. Cushman and H. S. Cheung (Spectrophotometric assay and properties of the angiotensin-converting enzyme of rabbit lung. Biochemical Pharmacology, 1971, 20: 1637-1648), later on modified by Y. K. Kim, S. Yoon, D. Y. Yu, B. Lönnerdal and B. H. Cheung (Novel angiotensin-I-converting enzyme inhibitory peptides derived from recombinant human αs1-casein expressed in Escherichia coli, Journal of Dairy Research 1999, 66, 431-439).
The substrate hippuryl histidyl leucine (HHL, Sigma Chemicals Co., St. Louis, Mo., USA) is dissolved in a 0.1 M borate buffer with 0.3 M NaCl pH 8.3 to obtain a final concentration of 5 mM. To 100 μl of substrate are added 40 μl of each of the samples whose ACEI activity it is wished to determine. The ACE enzyme (EC 3.4.15.1, Sigma) is added, dissolved in 50% glycerol and diluted 1/10 in bidistilled water at the moment of conducting the assay. The reaction is carried out at 37° C. for 30 minutes in a water-bath. The enzyme is deactivated by lowering the pH with 150 μl of 1 N HCl. The hippuric acid formed is extracted with 1000 μl of ethyl acetate. Following vortex stirring for 20 seconds, it is centrifuged at 4000 rpm for 10 minutes at room temperature. 750 μl of the organic phase are taken and evaporated by heating at 95° C. for 10 minutes. The hippuric acid residue is redissolved in 800 μl of bidistilled water and, following stirring for 20 seconds, the absorbency at 228 nm is measured in a Dur-70 spectrophotometer from Beckman Instruments, Inc., Fullerton, USA.
In order to calculate the percentage of ACEI activity, the following formula is used
The blank is used for correcting the background absorbency. This contains substrate, enzyme and 20 μl of bidistilled water in place of the sample, and the reaction is halted at zero time. The control implies a hundred percent of the enzymatic action on the substrate in the absence of inhibitors and contains 20 μl of water in place of the sample and is incubated the same time as the sample.
The results are presented as the IC50 (μM or μg/ml) or concentration at which 50% of the enzyme's activity is inhibited. The concentration of protein is determined by means of the bicinchonomic acid (BCA) assay (Pierce, Rockford, Ill., USA) using bovine seroalbumin as reference.

**Q.** Which “ACEI activity in vitro (in words)” value (peptides) does the source give for CC[C@H](C)[C@H](NC(=O)[C@@H]1CCCN1C(=O)[C@H](Cc1ccc(O)cc1)NC(=O)[C@H](CCCNC(=N)N)NC(=O)[C@H](CCC(=O)O)NC(=O)[C@H](CCC(=O)O)NC(=O)[C@H](C)NC(=O)[C@@H](N)Cc1ccc(O)cc1)C(=O)N[C@@H](CC(C)C)C(=O)O [SEQ. ID. N^o 6] (H-YAEERYPIL-OH; N-terminus and C-terminus assumed) here?
**A.** Its value is “potent ACEI activity”.

**Q.** And the pIC50 (read-out: ACEI activity IC50, synthetic peptides)?
**A.** The pIC50 was 5.33.
